Read-outs that look alike come from different tables or passages of the source. One block for each compound: values may come before it. Square brackets hold non-standard residues; d marks the D form. Peptide text beside a SMILES is read from it.
What was measured:
[1] = test system: rat peritoneal mast cells; test: In vitro histamine induction in rat peritoneal mast cells; format: cell-based
Experimental: To further evaluate the relationship between compound structure and histamine release, a series of compounds was prepared and assessed for their ability to trigger induction of histamine in an in vitro assay using rat peritoneal mast cells. In this assay, compounds are incubated at 10 μM for 15 minutes at 37° C. with cells isolated from peritoneal lavage of SD rats. Following incubation, cell medium is collected and histamine is determined.
Accordingly, and as can be appreciated in view of the PTH data and the histamine data described hereinabove, in one embodiment, a compound that has activity to decrease PTH level in a subject in the absence of a histamine response is contemplated. In certain embodiments, absence of a histamine response intends a dose of the compound that produces a less than 10-fold, more preferably 8-fold, still more preferably 5-fold, and even still more preferably 3-fold, increase in histamine, measured in vitro in an assay as described herein, where the fold change is determined based on histamine levels before incubation with the compound and after 15 minutes incubation with compound. In a specific embodiment, the histamine response is determined in an in vitro assay using rat peritoneal mast cells isolated from peritoneal lavage of normal Sprague Dawley rats, and where the fold change is determined based on histamine levels before incubation with the compound and after 15 minutes incubation with compound. In the studies conducted herein, the in vitro evaluation of histamine release was performed using isolated rat peritoneal mast cells isolated by peritoneal lavage using cold HBSS+25 mM HEPES pH 7.4 containing heparin (5 u/mL). Cells were washed twice in stimulation buffer (HBSS+25 mM HEPES pH 7.4) and incubated with 10 μM of compound in stimulation buffer (HBSS+25 mM HEPES pH 7.4) for 15 minutes in a 96-well plate ([…]) at 37° C. Cell supernatant was analyzed for histamine using histamine EIA kit (Cayman #589651).
For in vitro evaluation of histamine release, isolated rat peritoneal mast cells were isolated by performing peritoneal lavage using cold HBSS+25 mM HEPES pH 7.4 containing heparin (5 u/mL). Cells were washed twice in stimulation buffer (HBSS+25 mM HEPES pH 7.4) and incubated with 10 μM of compound in stimulation buffer (HBSS+25 mM HEPES pH 7.4) for 15 minutes in a 96-well plate (10^6/well) at 37° C. Cell supernatant was analyzed for histamine using histamine EIA kit (Cayman #589651).

[2] = test system: plasma PTH; test: In vivo PTH lowering after IV bolus in isoflurane-anesthetized normal Sprague Dawley rats; parameters: species or system rat; conditions: Table 6; normal rats, AUC 1-4 h
Experimental: The peptides were administered intravenously at a dose of 0.5 mg/kg into isoflurane-anesthetized normal Sprague Dawley rats. A control group of rats was treated with saline. Blood was drawn prior to dosing and every hour for 4 hours. Rats were maintained under isoflurane anesthesia for the entire study. […] Percent PTH reduction was calculated according to the following formula: AUCcmpd treated/AUCsaline control*100.
An intravenous (IV) bolus of saline was used as a control. Plasma (K2EDTA) PTH levels were assessed prior to dosing and 1, 2, 3 and 4 hours after dosing. Rats were maintained under isoflurane anesthesia for the entire study. […] In FIG. 2B, PTH is shown as percent of the baseline pre-dose value.
A series of compounds having an L-amino acid residue substituted for a D-amino acid residue were prepared. The compounds were administered as an IV bolus to normal Sprague Dawley rats at a dose of 0.5 mg/kg. An intravenous (IV) bolus of saline was used as a control. […] Rats were maintained under isoflurane anesthesia for the entire study.

SMILES: CC(=O)N[C@H](CS)C(=O)N[C@H](CCC(N)=O)C(=O)N[C@H](CCCNC(=N)N)C(=O)N[C@H](CCCNC(=N)N)C(=O)N[C@H](CCCNC(=N)N)C(=O)N[C@H](C)C(=O)N[C@H](CCCNC(=N)N)C(N)=O [SEQ ID NO: 99, Ac-cqrrrar-NH2] (Ac-[dC][dQ][dR][dR][dR][dA][dR]-NH2)
Histamine in vitro Fold change of non-treated at 10 uM [1]: 1.9 fold | 0.5 mg/kg IV bolus % PTH AUC of saline control [2]: 24%

SMILES: CC(=O)N[C@H](CS)C(=O)N[C@H](Cc1c[nH]cn1)C(=O)N[C@H](CCCNC(=N)N)C(=O)N[C@H](CCCNC(=N)N)C(=O)N[C@H](CCCNC(=N)N)C(=O)N[C@H](C)C(=O)N[C@H](CCCNC(=N)N)C(N)=O [SEQ ID NO: 103, Ac-chrrrar-NH2] (Ac-[dC][dH][dR][dR][dR][dA][dR]-NH2)
Histamine in vitro Fold change of non-treated at 10 uM [1]: 1.6 fold | 0.5 mg/kg IV bolus % PTH AUC of saline control [2]: 1%

SMILES: CC(=O)N[C@H](CS)C(=O)N[C@H](Cc1ccccc1)C(=O)N[C@H](CCCNC(=N)N)C(=O)N[C@H](CCCNC(=N)N)C(=O)N[C@H](CCCNC(=N)N)C(=O)N[C@H](C)C(=O)N[C@H](CCCNC(=N)N)C(N)=O [SEQ ID NO: 104, Ac-cfrrrar-NH2] (Ac-[dC][dF][dR][dR][dR][dA][dR]-NH2)
Histamine in vitro Fold change of non-treated at 10 uM [1]: 6.8 fold | 0.5 mg/kg IV bolus % PTH AUC of saline control [2]: 0%

SMILES: CC(=O)N[C@H](CS)C(=O)N[C@H](CCCNC(=N)N)C(=O)N[C@H](CCCNC(=N)N)C(=O)NCC(=O)N[C@H](CCCNC(=N)N)C(=O)N[C@H](C)C(=O)N[C@H](CCCNC(=N)N)C(N)=O [SEQ ID NO: 105, Ac-crrGrar-NH2] (Ac-[dC][dR][dR]G[dR][dA][dR]-NH2)
Histamine in vitro Fold change of non-treated at 10 uM [1]: 1.8 fold | 0.5 mg/kg IV bolus % PTH AUC of saline control [2]: 69%

SMILES: CC(=O)N[C@H](CS)C(=O)N[C@H](CCCNC(=N)N)C(=O)N[C@H](CCCNC(=N)N)C(=O)N1CCC[C@@H]1C(=O)N[C@H](CCCNC(=N)N)C(=O)N[C@H](C)C(=O)N[C@H](CCCNC(=N)N)C(N)=O [SEQ ID NO: 106, Ac-crrprar-NH2] (Ac-[dC][dR][dR][dP][dR][dA][dR]-NH2)
Histamine in vitro Fold change of non-treated at 10 uM [1]: 1.1 fold | 0.5 mg/kg IV bolus % PTH AUC of saline control [2]: 68%

SMILES: CC(=O)N[C@H](CS)C(=O)N[C@H](CCCNC(=N)N)C(=O)N[C@H](CCCNC(=N)N)C(=O)N[C@H](CCC(=O)O)C(=O)N[C@H](CCCNC(=N)N)C(=O)N[C@H](C)C(=O)N[C@H](CCCNC(=N)N)C(N)=O [SEQ ID NO: 107, Ac-crrerar-NH2] (Ac-[dC][dR][dR][dE][dR][dA][dR]-NH2)
Histamine in vitro Fold change of non-treated at 10 uM ([1]; Table 9, 10 μM, 15 minutes, 37° C.): 0.6 fold | 0.5 mg/kg IV bolus % PTH AUC of saline control [2]: 56%

SMILES: CC(=O)N[C@H](CS)C(=O)N[C@H](CCCNC(=N)N)C(=O)N[C@H](CCCNC(=N)N)C(=O)N[C@H](Cc1c[nH]cn1)C(=O)N[C@H](CCCNC(=N)N)C(=O)N[C@H](C)C(=O)N[C@H](CCCNC(=N)N)C(N)=O [SEQ ID NO: 109, Ac-crrhrar-NH2] (Ac-[dC][dR][dR][dH][dR][dA][dR]-NH2)
Histamine in vitro Fold change of non-treated at 10 uM [1]: 2.3 fold | 0.5 mg/kg IV bolus % PTH AUC of saline control [2]: 9%

SMILES: CC(=O)N[C@H](CS)C(=O)N[C@H](CCCNC(=N)N)C(=O)N[C@H](CCCNC(=N)N)C(=O)N[C@H](Cc1ccccc1)C(=O)N[C@H](CCCNC(=N)N)C(=O)N[C@H](C)C(=O)N[C@H](CCCNC(=N)N)C(N)=O [SEQ ID NO: 110, Ac-crrfrar-NH2] (Ac-[dC][dR][dR][dF][dR][dA][dR]-NH2)
Histamine in vitro Fold change of non-treated at 10 uM [1]: 6.2 fold | 0.5 mg/kg IV bolus % PTH AUC of saline control [2]: 6%

SMILES: CC(=O)N[C@H](CS)C(=O)N[C@H](CCCNC(=N)N)C(=O)N[C@H](CCCNC(=N)N)C(=O)N[C@H](CCC(N)=O)C(=O)N[C@H](CCCNC(=N)N)C(=O)N[C@H](C)C(=O)N[C@H](CCCNC(=N)N)C(N)=O [SEQ ID NO: 112, Ac-crrqrar-NH2] (Ac-[dC][dR][dR][dQ][dR][dA][dR]-NH2)
Histamine in vitro Fold change of non-treated at 10 uM [1]: 1.2 fold | 0.5 mg/kg IV bolus % PTH AUC of saline control [2]: 4%

Continued, in another order:

Histamine in vitro Fold change of non-treated at 10 uM [1]: 2.2 fold
SMILES: CC(=O)N[C@H](CS)C(=O)N[C@H](CC(C)C)C(=O)N[C@H](CCCNC(=N)N)C(=O)N[C@H](CCCNC(=N)N)C(=O)N[C@H](CCCNC(=N)N)C(=O)N[C@H](C)C(=O)N[C@H](CCCNC(=N)N)C(N)=O [SEQ ID NO: 98, Ac-clrrrar-NH2] (Ac-[dC][dL][dR][dR][dR][dA][dR]-NH2)
0.5 mg/kg IV bolus % PTH AUC of saline control [2]: 26%

Histamine in vitro Fold change of non-treated at 10 uM [1]: 1.1 fold
SMILES: CC(=O)N[C@H](CS)C(=O)N[C@@H](C(=O)N[C@H](CCCNC(=N)N)C(=O)N[C@H](CCCNC(=N)N)C(=O)N[C@H](CCCNC(=N)N)C(=O)N[C@H](C)C(=O)N[C@H](CCCNC(=N)N)C(N)=O)[C@H](C)O [SEQ ID NO: 100, Ac-ctrrrar-NH2] (Ac-[dC][dT][dR][dR][dR][dA][dR]-NH2)
0.5 mg/kg IV bolus % PTH AUC of saline control [2]: 23%

Histamine in vitro Fold change of non-treated at 10 uM [1]: 0.9 fold
SMILES: CC(=O)N[C@H](CS)C(=O)N[C@H](CO)C(=O)N[C@H](CCCNC(=N)N)C(=O)N[C@H](CCCNC(=N)N)C(=O)N[C@H](CCCNC(=N)N)C(=O)N[C@H](C)C(=O)N[C@H](CCCNC(=N)N)C(N)=O [SEQ ID NO: 102, Ac-csrrrar-NH2] (Ac-[dC][dS][dR][dR][dR][dA][dR]-NH2)
0.5 mg/kg IV bolus % PTH AUC of saline control [2]: 13%

Histamine in vitro Fold change of non-treated at 10 uM [1]: 1.2 fold
SMILES: CC(=O)N[C@H](CS)C(=O)N[C@H](CCCNC(=N)N)C(=O)N[C@H](CCCNC(=N)N)C(=O)N[C@@H](C(=O)N[C@H](CCCNC(=N)N)C(=O)N[C@H](C)C(=O)N[C@H](CCCNC(=N)N)C(N)=O)[C@H](C)O [SEQ ID NO: 108, Ac-crrtrar-NH2] (Ac-[dC][dR][dR][dT][dR][dA][dR]-NH2)
0.5 mg/kg IV bolus % PTH AUC of saline control [2]: 13%

Histamine in vitro Fold change of non-treated at 10 uM [1]: 2.0 fold
SMILES: CC(=O)N[C@H](CS)C(=O)N[C@H](CCCNC(=N)N)C(=O)N[C@H](CCCNC(=N)N)C(=O)N[C@H](CO)C(=O)N[C@H](CCCNC(=N)N)C(=O)N[C@H](C)C(=O)N[C@H](CCCNC(=N)N)C(N)=O [SEQ ID NO: 111, Ac-crrsrar-NH2] (Ac-[dC][dR][dR][dS][dR][dA][dR]-NH2)
0.5 mg/kg IV bolus % PTH AUC of saline control [2]: 4%

Histamine in vitro Fold change of non-treated at 10 uM [1]: 1.9 fold
SMILES: CC(=O)N[C@H](CS)C(=O)N[C@H](CCCNC(=N)N)C(=O)N[C@H](CCCNC(=N)N)C(=O)N[C@@H](C(=O)N[C@H](CCCNC(=N)N)C(=O)N[C@H](C)C(=O)N[C@H](CCCNC(=N)N)C(N)=O)C(C)C [SEQ ID NO: 113, Ac-crrvrar-NH2] (Ac-[dC][dR][dR][dV][dR][dA][dR]-NH2)
0.5 mg/kg IV bolus % PTH AUC of saline control [2]: 3%

Histamine in vitro Fold change of non-treated at 10 uM [1]: 4.5 fold
SMILES: CC(=O)N[C@H](CS)C(=O)N[C@H](CCCNC(=N)N)C(=O)N[C@H](CCCNC(=N)N)C(=O)N[C@H](CC(C)C)C(=O)N[C@H](CCCNC(=N)N)C(=O)N[C@H](C)C(=O)N[C@H](CCCNC(=N)N)C(N)=O [SEQ ID NO: 114, Ac-crrlrar-NH2] (Ac-[dC][dR][dR][dL][dR][dA][dR]-NH2)
0.5 mg/kg IV bolus % PTH AUC of saline control [2]: 1%

Histamine in vitro Fold change of non-treated at 10 uM [1]: 3.4 fold
SMILES: CC[C@@H](C)[C@@H](NC(=O)[C@@H](CCCNC(=N)N)NC(=O)[C@@H](CCCNC(=N)N)NC(=O)[C@@H](CS)NC(C)=O)C(=O)N[C@H](CCCNC(=N)N)C(=O)N[C@H](C)C(=O)N[C@H](CCCNC(=N)N)C(N)=O [SEQ ID NO: 115, Ac-crrirar-NH2] (Ac-[dC][dR][dR][dI][dR][dA][dR]-NH2)
0.5 mg/kg IV bolus % PTH AUC of saline control [2]: 0%

Reference: US10280198B2, “Therapeutic agents for reducing parathyroid hormone levels” (KAI PHARMACEUTICALS, INC., priority 2009, dated 2019)
